Reference: ChEMBL document CHEMBL3886889, “Substituted [1,2,4]triazolo[4,3-a]pyrazines as selective NK-3 receptor antagonists” (2016)

Key:
Neuromedin-K receptor [1] = molecular target: T1, Neuromedin-K receptor (Homo sapiens, UniProt P29371); experiment: Functional Assay: Chinese Hamster Ovary recombinant cells expressing the human NK-3 receptor and a construct that encodes the photoprotein apoaequorin were used for this assay. The antagonist activity of compounds of the invention is measured following pre-incubation (3 minutes) of the compound (at various concentrations) with the cells, followed by addition of the reference agonist (NKA) at a final concentration equivalent to the EC80 (3 nM) and recording of emitted light (FDSS 6000 Hamamatsu) over the subsequent 90-second period. The intensity of the emitted light is integrated using the reader software. Compound antagonist activity is measured based on the concentration-dependent inhibition of the luminescence response to the addition of Neurokinin A.
T1 sequence (P29371 whole entry): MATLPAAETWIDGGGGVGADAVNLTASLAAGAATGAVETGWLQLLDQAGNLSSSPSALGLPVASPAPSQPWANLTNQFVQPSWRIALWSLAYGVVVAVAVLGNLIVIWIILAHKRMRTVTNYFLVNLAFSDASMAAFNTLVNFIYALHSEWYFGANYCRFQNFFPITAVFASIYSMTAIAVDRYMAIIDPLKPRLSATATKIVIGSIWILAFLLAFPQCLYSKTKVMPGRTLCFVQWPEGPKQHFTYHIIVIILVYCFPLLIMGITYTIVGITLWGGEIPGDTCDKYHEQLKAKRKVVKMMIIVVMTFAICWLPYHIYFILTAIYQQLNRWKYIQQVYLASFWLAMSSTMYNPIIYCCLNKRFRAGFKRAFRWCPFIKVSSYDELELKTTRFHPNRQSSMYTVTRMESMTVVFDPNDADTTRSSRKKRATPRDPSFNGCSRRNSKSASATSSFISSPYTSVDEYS

Neuromedin-K receptor [2] = molecular target: T1, Neuromedin-K receptor; experiment: Competitive Binding Assay: The affinity of compounds of the invention for the human NK-3 receptor was determined by measuring the ability of compounds of the invention to competitively and reversibly displace a well-characterized NK-3 radioligand in a concentration-dependent manner.3H-SB222200 Binding Competition Assay with Human NK-3 ReceptorThe ability of compounds of the invention to inhibit the binding of the NK-3 receptor selective antagonist 3H-SB222200 was assessed by an in vitro radioligand binding assay. Membranes were prepared from Chinese hamster ovary recombinant cells stably expressing the human NK-3 receptor. The membranes were incubated with 5 nM 3H-SB222200 (ARC) in a HEPES 25 mM/NaCl 0.1M/CaCl2 1 mM/MgCl2 5 mM/BSA 0.5%/Saponin 10 μg/ml buffer at pH 7.4 and various concentrations of compounds of the invention. The amount of 3H-SB222200 bound to the receptor was determined after filtration by the quantification of membrane associated radioactivity using the TopCount-NXT reader (Packard).

| Structure (SMILES) | IC50 (Neuromedin-K receptor [1]) | Ki (Neuromedin-K receptor [2]) |
| --- | --- | --- |
| Cc1nsc(-c2nnc3n2CCN(C(=O)c2ccc(F)cc2)C3CCO)n1 (racemic) | 170 nM | 59 nM |
| CCC1c2nnc(-c3nc(C)ns3)n2CCN1C(=O)c1ccc(F)cc1 (racemic) | 220 nM | 150 nM |
